Columns and labels:
[1] = target: T1, hM1 (human Muscarinic receptor subtype 1) (Homo sapiens, UniProt P11229); assay: Human M1 calcium mobilization FLIPR assay; type: cell-based; details: hM1 expressed in CHO cells, intracellular Ca2+ release (FLIPR)
T1 construct: expressed in transfected cells; host or cells: CHO cells (ATCC)
T1 sequence (P11229 1-460): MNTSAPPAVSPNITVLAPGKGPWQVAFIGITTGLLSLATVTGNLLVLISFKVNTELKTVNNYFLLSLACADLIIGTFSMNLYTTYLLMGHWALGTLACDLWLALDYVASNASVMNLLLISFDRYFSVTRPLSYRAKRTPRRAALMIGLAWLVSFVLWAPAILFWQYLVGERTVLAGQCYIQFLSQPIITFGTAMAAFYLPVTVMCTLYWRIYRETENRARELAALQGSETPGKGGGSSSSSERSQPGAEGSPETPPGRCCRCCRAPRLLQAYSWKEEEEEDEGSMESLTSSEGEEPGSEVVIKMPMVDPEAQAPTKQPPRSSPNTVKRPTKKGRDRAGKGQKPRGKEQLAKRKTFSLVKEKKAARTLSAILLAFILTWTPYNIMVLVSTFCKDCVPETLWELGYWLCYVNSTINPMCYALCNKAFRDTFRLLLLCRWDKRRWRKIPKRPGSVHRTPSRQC
Experimental: (§1) Human M1, rat M1, Human M3 and Human M5 Calcium Mobilization FLIPR™ Assay The compound activity in the present invention (EC50 or IC50) is measured using a 384 plate-based imaging assay that monitors drug induced intracellular Ca^2+ release in whole cells. Activation of hM1 (human Muscarinic receptor subtype 1, gene bank access NM_000738), rM1 (rat Muscarinic receptor subtype 1, gene bank access NM_080773), hM3 (human Muscarinic receptor subtype 3, gene bank access NM_000740NM_000740) and hM5 (human Muscarinic receptor subtype 5, gene bank access NM_0121258), receptors expressed in CHO cells (Chinese hamster ovary cells, ATCC) is quantified in a Molecular Devices FLIPR IITM instrument as an increase in fluorescent signal. Inhibition of hM3 and hM5 by compounds is determined by the decrease in fluorescent signal in response to 2 nM acetylcholine activation. […] Prior to experiment, the cell culture medium is removed from the plates by inversion. […] Plates are incubated at 37° C. for 60 minutes prior to start the experiment. The incubation is terminated by washing the cells four times in assay buffer, leaving a residual 25 μl buffer per well. Cell plates are then transferred to the FLIPR, ready for compound additions. The day of experiment, acetylcholine and compounds are diluted in assay buffer in three-fold concentration range (10 points serial dilution) for addition by FLIPR instrument. For all calcium assays, a baseline reading is taken for 10 seconds followed by the addition of 12.5 μl of compounds, resulting in a total well volume of 37.5 μl. Data is collected every second for 60 pictures and then every 6 seconds for 20 pictures prior to the addition of agonist. For hM3 and hM5, before agonist addition, a second baseline reading is taken for 10 seconds followed by the addition of 12.5 μl of agonist or buffer, producing a final volume of 50 μl. After agonist stimulation, the FLIPR continues to collect data every second for 60 pictures and then every 6 seconds for 20 pictures. The fluorescence emission is read using filter 1 (emission 510-570 nm) by the FLIPR on board CCD camera. Calcium mobilization output data are calculated as the maximal relative fluorescence unit (RFU) minus the minimal value for both compound and agonist reading frame (except for hM1 and rM1 using only the maximal RFU). Data are analyzed using sigmoidal fits of a non-linear curve-fitting program (XLfit version 4.2.2 Excel add-in version 4.2.2 build 18 math 1Q version 2.1.2 build 18). All pEC50 and pIC50 values are reported as arithmetic means±standard error of mean of ‘n’ independent experiments.

[2] = target: T2, cloned human M2 receptor (Homo sapiens, UniProt P08172); assay: hM2 receptor GTPγS binding; type: biochemical; details: CHO membranes expressing hM2, [35S]GTPγS binding
T2 construct: purchased Perkin-Elmer RBHM2M; host or cells: Chinese hamster ovary cells (CHO), membranes
T2 sequence (P08172 1-466): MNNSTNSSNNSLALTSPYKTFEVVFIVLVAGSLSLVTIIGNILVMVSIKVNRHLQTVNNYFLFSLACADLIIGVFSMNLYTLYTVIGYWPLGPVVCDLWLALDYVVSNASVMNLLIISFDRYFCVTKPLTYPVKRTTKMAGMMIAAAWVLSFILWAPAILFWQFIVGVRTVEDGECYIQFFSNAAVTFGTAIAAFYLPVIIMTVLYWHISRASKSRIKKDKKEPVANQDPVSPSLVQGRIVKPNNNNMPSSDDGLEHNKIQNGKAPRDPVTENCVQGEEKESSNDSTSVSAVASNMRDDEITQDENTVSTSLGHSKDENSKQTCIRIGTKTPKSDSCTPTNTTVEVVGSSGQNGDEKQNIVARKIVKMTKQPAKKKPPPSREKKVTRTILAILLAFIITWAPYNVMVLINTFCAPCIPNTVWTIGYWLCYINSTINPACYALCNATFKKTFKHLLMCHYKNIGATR
Experimental: hM2 Receptor GTPγS Binding Membranes produced from Chinese hamster ovary cells (CHO) expressing the cloned human M2 receptor (human Muscarinic receptor subtype 2, gene bank access NM_000739), are obtained from Perkin-Elmer (RBHM2M). The membranes are thawed at 37° C., passed 3 times through a 23-gauge blunt-end needle, diluted in the GTPγS binding buffer (50 mM Hepes, 20 mM NaOH, 100 mM NaCl, 1 mM EDTA, 5 mM MgCl2, pH 7.4, 100 μM DTT). The EC50, IC50 and Emax of the compounds of the invention are evaluated from 10-point dose-response curves (three fold concentration range) done in 60 μl in 384-well non-specific binding surface plate (Corning). Ten microliters from the dose-response curves plate (5× concentration) are transferred to another 384 well plate containing 25 μl of the following: 5 μg of hM2 membranes, 500 μg of Flashblue beads (Perkin-Elmer) and GDP 25 μM. An additional 15 μl containing 3.3× (60,000 dpm) of GTPγ^35S (0.4 nM final) are added to the wells resulting in a total well volume of 50 μl. Basal and maximal stimulated [^35S]GTPγS binding are determined in absence and presence of 30 μM final of acetylcholine agonist. The membranes/beads mix are pre-incubated for 15 minutes at room temperature with 25 μM GDP prior to distribution in plates (12.5 μM final). The reversal of acetylcholine-induced stimulation (2 μM final) of [^35S]GTPγS binding is used to assay the antagonist properties (IC50) of the compounds. The plates are incubated for 60 minutes at room temperature then centrifuged at 400 rpm for 5 minutes. The radioactivity (cpm) is counted in a Trilux (Perkin-Elmer). Values of EC50, IC50 and Emax are obtained using sigmoidal fits of a non-linear curve-fitting program (XLfit version 4.2.2 Excel add-in version 4.2.2 build 18 math 1Q version 2.1.2 build 18) of percent stimulated [^35S]GTPγS binding vs. log(molar ligand). All pEC50 and pIC50 values are reported as arithmetic means±standard error of mean of ‘n’ independent experiments.

[3] = target: T3, hM3 (human Muscarinic receptor subtype 3) (Homo sapiens, UniProt P20309); assay: Human M3 calcium mobilization FLIPR assay; type: cell-based; details: hM3 expressed in CHO cells, intracellular Ca2+ release (FLIPR)
T3 construct: expressed in transfected cells; host or cells: CHO cells (ATCC)
T3 sequence (P20309 whole entry): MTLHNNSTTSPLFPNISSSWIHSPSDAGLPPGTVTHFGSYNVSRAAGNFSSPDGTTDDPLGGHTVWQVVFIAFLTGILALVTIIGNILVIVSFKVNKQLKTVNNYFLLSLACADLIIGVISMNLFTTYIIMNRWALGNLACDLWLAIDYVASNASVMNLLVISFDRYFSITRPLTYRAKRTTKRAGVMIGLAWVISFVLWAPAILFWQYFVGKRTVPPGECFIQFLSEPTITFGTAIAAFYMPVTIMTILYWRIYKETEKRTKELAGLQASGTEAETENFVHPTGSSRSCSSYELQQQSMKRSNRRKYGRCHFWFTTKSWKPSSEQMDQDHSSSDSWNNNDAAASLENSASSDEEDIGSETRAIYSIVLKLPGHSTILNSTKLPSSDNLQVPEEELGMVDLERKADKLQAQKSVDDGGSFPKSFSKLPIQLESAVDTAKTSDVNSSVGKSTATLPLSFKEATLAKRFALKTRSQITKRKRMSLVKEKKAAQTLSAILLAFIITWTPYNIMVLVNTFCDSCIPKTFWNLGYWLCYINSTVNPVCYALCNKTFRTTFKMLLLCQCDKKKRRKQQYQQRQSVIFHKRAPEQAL
Experimental: as §1

[4] = target: T4, hM5 (human Muscarinic receptor subtype 5) (Homo sapiens, UniProt P08912); assay: Human M5 calcium mobilization FLIPR assay; type: cell-based; details: hM5 expressed in CHO cells, intracellular Ca2+ release (FLIPR)
T4 construct: expressed in transfected cells; host or cells: CHO cells (ATCC)
T4 sequence (P08912 1-532): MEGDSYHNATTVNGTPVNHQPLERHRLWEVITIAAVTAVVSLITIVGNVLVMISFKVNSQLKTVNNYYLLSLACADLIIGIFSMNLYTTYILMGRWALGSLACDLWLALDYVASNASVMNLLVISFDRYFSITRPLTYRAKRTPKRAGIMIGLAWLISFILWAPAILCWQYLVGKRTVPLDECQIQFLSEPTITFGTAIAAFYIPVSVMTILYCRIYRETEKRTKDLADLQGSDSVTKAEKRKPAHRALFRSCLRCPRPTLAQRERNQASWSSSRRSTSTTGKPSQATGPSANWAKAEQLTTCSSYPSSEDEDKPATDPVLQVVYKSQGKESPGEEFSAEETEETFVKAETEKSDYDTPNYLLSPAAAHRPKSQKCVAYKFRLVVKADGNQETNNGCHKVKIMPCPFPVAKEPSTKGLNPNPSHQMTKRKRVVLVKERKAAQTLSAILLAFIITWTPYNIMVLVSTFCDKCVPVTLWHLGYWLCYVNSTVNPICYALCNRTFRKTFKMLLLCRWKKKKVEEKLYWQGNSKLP
Experimental: as §1

[5] = one or more of the biological assays described above (unspecified); details: tested using one or more of the biological assays described above
Experimental: The compound activity in the present invention (EC50 or IC50) is measured using a 384 plate-based imaging assay that monitors drug induced intracellular Ca^2+ release in whole cells. Activation of hM1 (human Muscarinic receptor subtype 1, gene bank access NM_000738), rM1 (rat Muscarinic receptor subtype 1, gene bank access NM_080773), hM3 (human Muscarinic receptor subtype 3, gene bank access NM_000740NM_000740) and hM5 (human Muscarinic receptor subtype 5, gene bank access NM_0121258), receptors expressed in CHO cells (Chinese hamster ovary cells, ATCC) is quantified in a Molecular Devices FLIPR IITM instrument as an increase in fluorescent signal. Inhibition of hM3 and hM5 by compounds is determined by the decrease in fluorescent signal in response to 2 nM acetylcholine activation.
Membranes produced from Chinese hamster ovary cells (CHO) expressing the cloned human M2 receptor (human Muscarinic receptor subtype 2, gene bank access NM_000739), are obtained from Perkin-Elmer (RBHM2M). […] The EC50, IC50 and Emax of the compounds of the invention are evaluated from 10-point dose-response curves (three fold concentration range) done in 60 μl in 384-well non-specific binding surface plate (Corning). […] Basal and maximal stimulated [^35S]GTPγS binding are determined in absence and presence of 30 μM final of acetylcholine agonist. […] The radioactivity (cpm) is counted in a Trilux (Perkin-Elmer). […]

SMILES	EC50 [1] [µM]	EC50 [2] [µM]	EC50 [3] [µM]	EC50 [4] [µM]	efficacy [5]
CC(C)OCC1CCC(N2CCC(N3C(=O)NC[C@H]4CCCC[C@@H]43)CC2)CC1 (single isomer, unassigned) [Example 03]	0.058	1.7	> 40	> 14.5	–
O=C1CO[C@H]2CCCC[C@@H]2N1C1CCN(C2CCC(COCC3CCC3)CC2)CC1 (single isomer, unassigned) [Example 28]	0.051	> 90	> 40	> 40	–
O=C1CO[C@H]2CCCC[C@@H]2N1C1CCN(C2CCC(COCC3CCC3)CC2)CC1 (single isomer, unassigned) [Example 29]	0.15	> 90	> 40	> 40	–
CC(C)OC1CCC(N2CCC(N3C(=O)NC[C@H]4CCCC[C@@H]43)CC2)CC1 (single isomer, unassigned) [diastereomer 2]	–	–	–	–	does not show efficacy
